Test results: ChEMBL document CHEMBL2331503, “Hx-amides: DNA sequence recognition by the fluorescent Hx (p-anisylbenzimidazole)•pyrrole and Hx•imidazole pairings” (Bioorg Med Chem Lett, 2013)
Calls of active or inactive are those of the source. The calls are words filed in the database; no cut-off is given here.

Tests used:
[1] = Binding affinity to 5'-ACGCGT DNA assessed as change in melting temperature at 3 mol equivalent of compound-DNA
[2] = Binding affinity to 5'-ATGCAT DNA by surface plasmon resonance assay
[3] = Binding affinity to 5'-AAATTT DNA assessed as change in melting temperature at 3 mol equivalent of compound-DNA
[4] = Binding affinity to 5'-ACCGGT DNA assessed as change in melting temperature at 3 mol equivalent of compound-DNA
[5] = Inhibition of 5'-ACCGGT cognate sequence containing 5'-32P labeled 131 base pair DNA (unknown origin) cleavage at 10 to 30 uM DNase I footprinting method
[6] = Binding affinity to 5'-AGCGCT DNA by surface plasmon resonance assay
[7] = Binding affinity to cognate sequence of 5'-ACCGGT DNA by surface plasmon resonance assay
[8] = Binding affinity to cognate sequence of 5'-ACCGGT DNA at 1 mol equivalent by circular dichroism analysis

With `COc1ccc(-c2nc3ccc(C(=O)Nc4cn(C)c(C(=O)Nc5cn(C)c(C(=O)NCCN(C)C)n5)n4)cc3[nH]2)cc1` the ΔTm [1] was 0 °C, the K [2] was 1 ×10⁶ /M and the ΔTm [3] was 5 °C. The ΔTm [4] was 5 °C, the inhibition [5] was “Active” and the K [6] was 5 ×10⁵ /M. For the same molecule, the K [7] was 2 ×10⁶ /M and the Activity [8] was “Active”.
